The structures appear in SMILES notation. Structures can show the parent of a compound that is named as a salt.

The assay deals with CRAC channels (Homo sapiens (Human), UniProt Q96D31). Briefly: In-vitro CRAC channel inhibition assay in Jurkat cells (thapsigargin-induced calcium influx). In kind it is cell-based. The procedure: 1A. In-Vitro CRAC Channel Inhibition Assay in Jurkat Cells
Sequence of CRAC channels (Q96D31 whole entry): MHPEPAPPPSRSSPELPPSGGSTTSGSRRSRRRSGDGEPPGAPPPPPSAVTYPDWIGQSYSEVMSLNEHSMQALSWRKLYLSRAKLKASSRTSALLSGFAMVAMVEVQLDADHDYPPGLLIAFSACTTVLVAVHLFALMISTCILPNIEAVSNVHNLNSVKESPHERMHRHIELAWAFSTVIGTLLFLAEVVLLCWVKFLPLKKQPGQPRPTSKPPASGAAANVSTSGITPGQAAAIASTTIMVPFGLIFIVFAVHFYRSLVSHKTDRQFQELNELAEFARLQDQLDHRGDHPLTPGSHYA
Plate is incubated at 37° C./5% CO2 for 30 min followed by further 15 min incubation at room temperature. Test compounds (DMSO stocks diluted in Ca^2+ and Mg^2+ free Hanks buffer) at desired concentrations were added to the wells and incubated for 15 min. Thapsigargin (1 μM final concentration) was added to the wells and incubated for 15 min to inhibit the Sarco-endoplasmic reticulum Ca^2+ ATPase pump thereby depleting endoplasmic calcium and raising cytosolic calcium concentrations. Store-operated calcium entry was initiated by adding extracellular Ca^2+ to a final concentration of 1.8 mM. Fluorescence was monitored over 5 min on a plate reader (BMG Labtech., Germany) with excitation at 485 nm and; an emission wavelength at 520 nm. Data were analyzed using GraphPad Prism. IC50 for each compound was determined based on the percent inhibition of thapsigargin-induced calcium influx into cells.
The inhibition is the share of the control response that was lost under treatment. For the compound `O=C(Nc1ccc(-n2nc(C(F)(F)F)cc2C2CC2)c(F)c1)c1cccnc1` [Example 89, N-{4-[5-cyclopropyl-3-(trifluoromethyl)-1H-pyrazol-1-yl]-3-fluorophenyl}nicotinamide hydrochloride], the inhibition at 1 µM amounted to 100%.

In the case of `Cc1ncncc1C(=O)N(C)c1ccc(-n2nc(C(F)(F)F)cc2C2CC2)c(F)c1` [Example 94, N-{4-[5-cyclopropyl-3-(trifluoromethyl)-1H-pyrazol-1-yl]-3-fluorophenyl}-N,4-dimethylpyrimidine-5-carboxamide], the inhibition at 1 µM was 45.4%.

On to `Cc1nnsc1C(=O)Nc1ccc(-n2nc(C(F)(F)F)c(Cl)c2C2CC2)c(F)c1` [Example 95, N-{4-[4-chloro-5-cyclopropyl-3-(trifluoromethyl)-1H-pyrazol-1-yl]-3-fluorophenyl}-4-methyl-1,2,3-thiadiazole-5-carboxamide], for which the inhibition at 1 µM was 100%.

In the case of `O=C(Cc1ccccn1)Nc1ccc(-n2nc(C(F)(F)F)c(Cl)c2C2CC2)c(F)c1` [Example 96, N-{4-[4-chloro-5-cyclopropyl-3-(trifluoromethyl)-1H-pyrazol-1-yl]-3-fluorophenyl}-2-(pyridin-2-yl)acetamide hydrochloride], the inhibition at 1 µM was determined as 18%.

In the case of `Cc1ncncc1NC(=O)Nc1ccc(-n2nc(C(F)(F)F)cc2C2CC2)c(F)c1` [Example 97, 1-{4-[5-cyclopropyl-3-(trifluoromethyl)-1H-pyrazol-1-yl]-3-fluorophenyl}-3-(4-methylpyrimidin-5-yl)urea], the inhibition at 1 µM came out at 97%.

As to `O=C(Nc1c(Cl)cccc1Cl)c1ccc(-n2nc(C(F)(F)F)cc2C2CC2)c(F)c1` [Example 98], the inhibition at 1 µM came out at 85.6%.

For the compound `O=C(Nc1cccc(F)c1F)c1ccc(-n2nc(C(F)(F)F)cc2C2CC2)c(F)c1` [Example 99, 4-[5-cyclopropyl-3-(trifluoromethyl)-1H-pyrazol-1-yl]-N-(2,3-difluorophenyl)-3-fluorobenzamide], the inhibition at 1 µM was 56.2%.

Take `Cc1nnsc1C(=O)Nc1ccc(-n2nc(C(F)(F)F)cc2C2CC2)nc1` [Example 101, N-{6-[5-cyclopropyl-3-(trifluoromethyl)-1H-pyrazol-1-yl]pyridin-3-yl}-4-methyl-1,2,3-thiadiazole-5-carboxamide]: the inhibition at 1 µM was 93%.

With `Cc1ncsc1C(=O)Nc1ccc(-n2nc(C(F)(F)F)cc2C2CC2)nc1` [Example 102, N-{6-[5-cyclopropyl-3-(trifluoromethyl)-1H-pyrazol-1-yl]pyridin-3-yl}-4-methylthiazole-5-carboxamide hydrochloride], the inhibition at 1 µM was determined as 34.9%.

For `Cc1noc(C)c1C(=O)Nc1ccc(-n2nc(C(F)(F)F)cc2C2CC2)nc1` [Example 103, N-{6-[5-cyclopropyl-3-(trifluoromethyl)-1H-pyrazol-1-yl]pyridin-3-yl}-3,5-dimethylisoxazole-4-carboxamide], the inhibition at 1 µM stood at 19.4%.

With `O=C(Nc1ccc(-n2nc(C(F)(F)F)cc2C2CC2)nc1)c1ccccc1Cl` [Example 105, 2-chloro-N-{6-[5-cyclopropyl-3-(trifluoromethyl)-1H-pyrazol-1-yl]pyridin-3-yl}benzamide hydrochloride], the inhibition at 1 µM is 71.2%.

Consider `O=C(Nc1ccc(-n2nc(C(F)(F)F)cc2C2CC2)nc1)c1cccc(F)c1F` [Example 107, N-{6-[5-cyclopropyl-3-(trifluoromethyl)-1H-pyrazol-1-yl]pyridin-3-yl}-2,3-difluorobenzamide], for which the inhibition at 1 µM worked out at 97%.

For `O=C(Nc1ccc(-n2nc(C(F)(F)F)cc2C2CC2)nc1)c1ccccn1` [Example 109, N-{6-[5-cyclopropyl-3-(trifluoromethyl)-1H-pyrazol-1-yl]pyridin-3-yl}picolinamide], the inhibition at 1 µM amounted to 6.18%.

With `Cc1cccnc1C(=O)Nc1ccc(-n2nc(C(F)(F)F)cc2C2CC2)nc1` [Example 110, N-{6-[5-cyclopropyl-3-(trifluoromethyl)-1H-pyrazol-1-yl]pyridin-3-yl}-3-methylpicolinamide], the inhibition at 1 µM came to 78.4%.

For the compound `O=C(Nc1ccc(-n2nc(C(F)(F)F)cc2C2CC2)nc1)c1ccncc1` [Example 113, N-{6-[5-cyclopropyl-3-(trifluoromethyl)-1H-pyrazol-1-yl]pyridin-3-yl}isonicotinamide hydrochloride], the inhibition at 1 µM is 100%.

On to `O=C(Nc1ccc(-n2nc(C(F)(F)F)cc2C2CC2)nc1)c1ccncc1F` [Example 114, N-{6-[5-cyclopropyl-3-(trifluoromethyl)-1H-pyrazol-1-yl]pyridin-3-yl}-3-fluoroisonicotinamide], for which the inhibition at 1 µM turned out to be 88.7%.

Turning to `O=C(Nc1ccc(-n2nc(C(F)(F)F)cc2C2CC2)nc1)c1c(Cl)cncc1Cl` [Example 115, 3,5-dichloro-N-{6-[5-cyclopropyl-3-(trifluoromethyl)-1H-pyrazol-1-yl]pyridin-3-yl}isonicotmamide], the inhibition at 1 µM was determined as 51.3%.

Regarding `Cc1ncncc1C(=O)Nc1ccc(-n2nc(C(F)(F)F)cc2C2CC2)nc1` [Example 116, N-{6-[5-cyclopropyl-3-(trifluoromethyl)-1H-pyrazol-1-yl]pyridin-3-yl}-4-methylpyrimidine-5-carboxamide], the inhibition at 1 µM is 15.4%.

Consider `O=C(Cc1ccccn1)Nc1ccc(-n2nc(C(F)(F)F)cc2C2CC2)nc1` [Example 117, N-{6-[5-cyclopropyl-3-(trifluoromethyl)-1H-pyrazol-1-yl]pyridin-3-yl}-2-(pyridin-2-yl)acetamide hydrochloride], for which the inhibition at 1 µM is 0%.

For `O=C(Cc1ccncc1)Nc1ccc(-n2nc(C(F)(F)F)cc2C2CC2)nc1` [Example 118, N-{6-[5-cyclopropyl-3-(trifluoromethyl)-1H-pyrazol-1-yl]pyridin-3-yl}-2-(pyridin-4-yl)acetamide hydrochloride], the inhibition at 1 µM was 20.9%.

`Cc1ncncc1C(=O)Nc1ccc(-n2nc(C(F)(F)F)c(Cl)c2C2CC2)c(F)c1` [Example 119, N-{4-[4-chloro-5-cyclopropyl-3-(trifluoromethyl)-1H-pyrazol-1-yl]-3-fluorophenyl}-4-methylpyrimidine-5-carboxamide]: the inhibition at 1 µM came to 40.5%.

Regarding `O=C(Nc1cccc(F)c1F)c1ccc(-n2nc(C(F)(F)F)cc2C2CC2)nc1` [Example 121, 6-[5-cyclopropyl-3-(trifluoromethyl)-1H-pyrazol-1-yl]-N-(2,3-difluorophenyl)nicotinamide], the inhibition at 1 µM came out at 23.1%.

With `O=C(Nc1c(F)cccc1F)c1ccc(-n2nc(C(F)(F)F)cc2C2CC2)nc1` [Example 122, 6-[5-cyclopropyl-3-(trifluoromethyl)-1H-pyrazol-1-yl]-N-(2,6-difluorophenyl) nicotinamide], the inhibition at 1 µM came out at 100%.

For `Cc1ncsc1C(=O)Nc1ccc(-n2nc(C(F)(F)F)c(Cl)c2C2CC2)nc1` [Example 123, N-{6-[4-chloro-5-cyclopropyl-3-trifluoromethyl-1H-pyrazol-1-yl]pyridin-3-yl}-4-methylthiazole-5-carboxamide], the inhibition at 1 µM was 31%.

`O=C(Nc1cnc(-n2nc(C(F)(F)F)cc2C2CC2)nc1)c1c(F)cccc1F` [Example 124, N-{2-[5-cyclopropyl-3-(trifluoromethyl)-1H-pyrazol-1-yl]pyrimidin-5-yl}-2,6-difluorobenzamide]: the inhibition at 1 µM was found to be 86.2%.

In the case of `Cc1ncsc1C(=O)Nc1ccc(-n2nc(C(F)(F)F)cc2CF)cc1` [Example 125, N-{4-[5-(fluoromethyl)-3-(trifluoromethyl)-1H-pyrazol-1-yl]phenyl}-4-methylthiazole-5-carboxamide], the inhibition at 1 µM stood at 100%.

On to `Cc1ncsc1C(=O)Nc1ccc(-n2nc(C(F)(F)F)cc2C(F)F)cc1` [Example 126, N-{4-[5-(difluoromethyl)-3-(trifluoromethyl)-1H-pyrazol-1-yl]phenyl}-4-methyl thiazole-5-carboxamide], for which the inhibition at 1 µM was 100%.

With `O=C(Nc1ccc(-n2nc(C3CC3)cc2C2CC2)c(F)c1)c1c(Cl)cncc1Cl` [Example 127, 3,5-dichloro-N-[4-(3,5-dicyclopropyl-1H-pyrazol-1-yl)-3-fluorophenyl]isonicotinamide], the inhibition at 1 µM is 66.3%.

As to `O=C(Nc1c(F)cccc1Cl)c1ccc(-n2nc(C(F)(F)F)cc2C2CC2)c(F)c1` [Example 128, N-(2-chloro-6-fluorophenyl)-4-[5-cyclopropyl-3-(trifluoromethyl)-1H-pyrazol-1-yl]-3-fluorobenzamide], the inhibition at 1 µM turned out to be 100%.

With `Cc1ncsc1C(=O)Nc1cnc(-n2nc(C(F)(F)F)cc2C2CC2)nc1` [Example 129, N-{2-[5-cyclopropyl-3-(trifluoromethyl)-1H-pyrazol-1-yl]pyrimidin-5-yl}-4-methyl thiazole-5-carboxamide], the inhibition at 1 µM is 28.3%.

As to `Cc1ncncc1C(=O)Nc1cc(F)c(-n2nc(C(F)(F)F)cc2C2CC2)c(F)c1` [Example 130, N-{4-[5-cyclopropyl-3-(trifluoromethyl)-1H-pyrazol-1-yl]-3,5-difluorophenyl}-4-methylpyrimidine-5-carboxamide], the inhibition at 1 µM was 5.31%.

Turning to `O=C(Nc1ccc(-n2nc(C(F)(F)F)cc2C2CC2)c(F)c1)C1(c2ccccc2)CCC1` [Example 131, N-{4-[5-cyclopropyl-3-(trifluoromethyl)-1H-pyrazol-1-yl]-3-fluorophenyl}-1-phenylcyclobutanecarboxamide], the inhibition at 1 µM stood at 0%.

In the case of `Cc1ncoc1C(=O)Nc1ccc(-n2nc(C(F)(F)F)cc2C2CC2)c(F)c1` [Example 132, N-{4-[5-cyclopropyl-3-(trifluoromethyl)-1H-pyrazol-1-yl]-3-fluorophenyl}-4-methyloxazole-5-carboxamide], the inhibition at 1 µM worked out at 85.2%.

The values are drawn from US10668051B2, “Modulators of calcium release-activated calcium channel” (Rhizen Pharmaceuticals SA, priority 2009, dated 2020).
